In data set [1] the target is human recombinant CYP3A4 (Homo sapiens, UniProt P08684). The data set can be described thus: Cytochrome P450 inhibition assay (substrate 7-benzyloxy-4-(trifluoromethyl)coumarin).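 Further: compounds preincubated at least 10 min at 37 °C before adding enzyme plus substrate, reaction run 30 min at 37 °C, ketoconazole standard curve on every plate.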 Format: in vitro ADME.
In data set [2] the target is T1, human glucocorticoid receptor (GR) complex (Homo sapiens, UniProt P04150).
T1 construct: made in house; host or cells: insect expression system (baculovirus lysate)
T1 sequence (P04150 1-777): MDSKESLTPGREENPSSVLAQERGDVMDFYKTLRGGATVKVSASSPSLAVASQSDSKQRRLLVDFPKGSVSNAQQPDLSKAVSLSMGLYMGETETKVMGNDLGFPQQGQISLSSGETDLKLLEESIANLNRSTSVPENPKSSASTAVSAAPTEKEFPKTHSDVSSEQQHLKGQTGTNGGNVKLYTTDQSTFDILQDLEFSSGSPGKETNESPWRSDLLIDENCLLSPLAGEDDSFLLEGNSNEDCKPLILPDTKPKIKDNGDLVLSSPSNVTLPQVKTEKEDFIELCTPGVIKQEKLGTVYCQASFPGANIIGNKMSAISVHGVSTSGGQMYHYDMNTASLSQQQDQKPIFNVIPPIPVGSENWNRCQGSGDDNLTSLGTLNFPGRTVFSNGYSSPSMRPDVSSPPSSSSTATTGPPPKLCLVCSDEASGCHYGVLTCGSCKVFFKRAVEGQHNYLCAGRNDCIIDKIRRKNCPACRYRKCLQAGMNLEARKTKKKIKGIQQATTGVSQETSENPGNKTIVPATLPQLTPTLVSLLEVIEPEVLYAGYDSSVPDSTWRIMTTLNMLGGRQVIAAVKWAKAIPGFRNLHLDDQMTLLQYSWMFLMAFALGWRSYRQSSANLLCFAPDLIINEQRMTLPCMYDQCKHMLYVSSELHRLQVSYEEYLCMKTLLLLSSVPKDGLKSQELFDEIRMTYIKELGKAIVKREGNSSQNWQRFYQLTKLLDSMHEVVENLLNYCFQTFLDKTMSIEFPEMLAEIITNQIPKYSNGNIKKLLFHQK
The data set can be described thus: Glucocorticoid receptor fluorescence polarization competitive binding assay.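 Further: GR complex expressed in an insect system, wells lacking compound give full signal, excess unlabeled dexamethasone defines the blank, IC50 from logistic curve fit of polarization.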

Where [3] appears, read: Table 1, competition with TAMRA-labeled dexamethasone, read-out: GR IC50.
Setting [4] is: Table 2, comparison compounds, read-out: CYP3A4 Inhibition IC50.

Read-outs that look alike come from different tables or passages of the source.

Chain of human recombinant CYP3A4 (P08684 whole entry): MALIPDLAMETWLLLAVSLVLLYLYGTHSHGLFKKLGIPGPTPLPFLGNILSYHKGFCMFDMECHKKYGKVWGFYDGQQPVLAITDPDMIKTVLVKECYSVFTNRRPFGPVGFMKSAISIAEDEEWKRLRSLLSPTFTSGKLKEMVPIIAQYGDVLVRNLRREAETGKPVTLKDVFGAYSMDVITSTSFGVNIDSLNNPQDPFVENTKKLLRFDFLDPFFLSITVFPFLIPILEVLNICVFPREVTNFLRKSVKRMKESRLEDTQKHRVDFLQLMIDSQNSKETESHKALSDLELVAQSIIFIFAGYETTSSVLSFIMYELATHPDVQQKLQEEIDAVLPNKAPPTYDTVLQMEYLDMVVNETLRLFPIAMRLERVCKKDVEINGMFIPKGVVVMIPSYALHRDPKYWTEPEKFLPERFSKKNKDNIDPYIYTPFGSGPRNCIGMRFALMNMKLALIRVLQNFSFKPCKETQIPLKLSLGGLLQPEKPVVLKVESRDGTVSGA

As to `CCCS(=O)(=O)c1cc2cc(CC(O)(CC(C)(C)c3ccccc3S(C)(=O)=O)C(F)(F)F)[nH]c2cn1` (centres unmarked) [1,1,1-Trifluoro-4-(2-methanesulfonylphenyl)-4-methyl-2-[5-(propane-1-sulfonyl)-1H-pyrrolo[2,3-c]pyridin-2-ylmethyl]pentan-2-ol], the IC50 amounted to 1.6 µM in data set [1] (Table 1, read-out: CYP3A4 IC50) and 0.024 µM in data set [2].

For the molecule `Cc1ccc(C(N)=O)c(C(C)(C)CC(O)(Cc2cc3cc(S(C)(=O)=O)ncc3[nH]2)C(F)(F)F)c1` (centres unmarked) [4-Methyl-2-[4,4,4-trifluoro-3-hydroxy-3-(5-methanesulfonyl-1H-pyrrolo[2,3-c]pyridin-2-ylmethyl)-1,1-dimethylbutyl]benzamide], the IC50 in data set [2] (setting [3]) stood at 0.044 µM.

Consider `CCS(=O)(=O)c1cc2cc(CC(O)(CC(C)(C)c3ccc(Cl)cc3C(N)=O)C(F)(F)F)[nH]c2cn1` (centres unmarked) [5-Chloro-2-[3-(5-ethanesulfonyl-1H-pyrrolo[2,3-c]pyridin-2-ylmethyl)-4,4,4-trifluoro-3-hydroxy-1,1-dimethylbutyl]benzamide], for which the concentration for half-maximal inhibition (IC50) in data set [2] (setting [3]) came to 0.044 µM.

Regarding `Cc1ccc(C(C)(C)CC(O)(Cc2cc3nc(S(C)(=O)=O)ccc3[nH]2)C(F)(F)F)c(C(N)=O)c1` (centres unmarked) [5-Methyl-2-[4,4,4-trifluoro-3-hydroxy-3-(5-methanesulfonyl-1H-pyrrolo[3,2-b]pyridin-2-ylmethyl)-1,1-dimethylbutyl]benzamide], the concentration for half-maximal inhibition (IC50) in data set [2] (setting [3]) turned out to be 0.058 µM.

`Cc1ccc(C(C)(C)CC(O)(Cc2cc3cc(S(=O)(=O)C(C)C)ncc3[nH]2)C(F)(F)F)c(C(N)=O)c1` (centres unmarked) [5-Methyl-2-{4,4,4-trifluoro-3-hydroxy-1,1-dimethyl-3-[5-(propane-2-sulfonyl)-1H-pyrrolo[2,3-c]pyridin-2-ylmethyl]butyl}benzamide]: the IC50 in data set [2] (setting [3]) was 0.25 µM. As for `CC(C)(CC(O)(Cc1cc2ccncc2[nH]1)C(F)(F)F)c1ccccc1S(C)(=O)=O` (centres unmarked) [Compound 2, reference compound], the IC50 in data set [1] (setting [4]) is 0.18 µM. For the molecule `CC(C)(CC(O)(Cc1cc2ccncc2[nH]1)C(F)(F)F)c1ccccc1C(N)=O` (centres unmarked) [Compound 5, reference compound], the IC50 in data set [1] (setting [4]) came to 0.51 µM. Consider `CC(C)(CC(O)(Cc1cc2ccncc2[nH]1)C(F)(F)F)c1ccccc1` (centres unmarked) [Compound 7, reference compound], for which the “CYP inhibition (in words)” value in data set [1] (Table 2) is on record as “potent CYP inhibitor”. The IC50 in data set [1] (setting [4]) was found to be 0.9 µM.

On to `CC(C)(C[C@@](O)(Cc1cc2cc(S(C)(=O)=O)ncc2[nH]1)C(F)(F)F)c1ccc(F)cc1S(C)(=O)=O` [drawing 10, (R)-1,1,1-Trifluoro-4-(4-fluoro-2-methanesulfonylphenyl)-2-(5-methanesulfonyl-1H-pyrrolo[2,3-c]pyridin-2-ylmethyl)-4-methylpentan-2-ol], for which, in data set [2] (setting [3]), the IC50 worked out at 0.028 µM.

Regarding `CC(C)(C[C@@](O)(Cc1cc2cc(S(C)(=O)=O)ncc2[nH]1)C(F)(F)F)c1ccc(Cl)cc1S(C)(=O)=O` [drawing 13, (R)-4-(4-Chloro-2-methanesulfonylphenyl)-1,1,1-trifluoro-2-(5-methanesulfonyl-1H-pyrrolo[2,3-c]pyridin-2-ylmethyl)-4-methylpentan-2-ol], the IC50 in data set [2] worked out at 0.036 µM.

With `CCS(=O)(=O)c1cc2cc(CC(O)(CC(C)(C)c3ccc(Cl)cc3S(C)(=O)=O)C(F)(F)F)[nH]c2cn1` (centres unmarked) [drawing 15, 4-(4-Chloro-2-methanesulfonylphenyl)-2-(5-ethanesulfonyl-1H-pyrrolo[2,3-c]pyridin-2-ylmethyl)-1,1,1-trifluoro-4-methylpentan-2-ol], in data set [2] (setting [3]), the IC50 came to 0.039 µM. On the same count and under the same terms, the figure for `CCS(=O)(=O)c1cc2cc(CC(O)(CC(C)(C)c3ccc(F)cc3S(C)(=O)=O)C(F)(F)F)[nH]c2cn1` (centres unmarked) [drawing 16, 2-(5-Ethanesulfonyl-1H-pyrrolo[2,3-c]pyridin-2-ylmethyl)-1,1,1-trifluoro-4-(4-fluoro-2-methanesulfonylphenyl)-4-methylpentan-2-ol] is 0.029 µM.
